In US5312838A, “β-alanineamide aryl/alkylsulfide/sulfonyl-terminated amino-diol compounds for treatment of hypertension” (G. D. Searle & Co., priority 1992, dated 1994):
Each block holds one molecule with its values, some of them ahead of it. Where a SMILES comes first, the peptide text is derived from it. [ ]: non-standard residue; d: D form. The star is where a group is joined. Sta = CC(C)C[C@H](N)[C@@H](O)CC(=O)O; Isovaleryl = CC(C)CC(=O)*

Columns and labels:
[1] = target: T1, human renin (Homo sapiens, UniProt P00797); assay: Human Renin Inhibition in vitro (angiotensin I by radioimmunoassay); type: biochemical; settings: pH 7.4, 37° C., two hours, human plasma
T1 construct: purchased National Institute for Biological Standards, London
T1 sequence (P00797 67-406): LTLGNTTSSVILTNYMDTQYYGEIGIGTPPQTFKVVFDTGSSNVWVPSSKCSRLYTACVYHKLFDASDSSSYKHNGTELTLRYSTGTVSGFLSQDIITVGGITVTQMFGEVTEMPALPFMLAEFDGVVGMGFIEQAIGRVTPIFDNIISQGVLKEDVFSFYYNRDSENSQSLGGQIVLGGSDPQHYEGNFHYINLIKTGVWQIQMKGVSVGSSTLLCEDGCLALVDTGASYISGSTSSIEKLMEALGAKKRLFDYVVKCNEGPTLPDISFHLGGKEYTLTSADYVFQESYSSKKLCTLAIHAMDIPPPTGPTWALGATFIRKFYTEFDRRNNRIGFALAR
Protocol: Compounds of Formula I were evaluated as inhibitors of human renin in an in vitro assay, as follows: This human renin inhibition test has been previously described in detail [Papaioannou et al., Clinical and Experimental Hypertension, A7(9), 1243-1257 (1985)]. Human renin was obtained from the National Institute for Biological Standards, London. An incubation mixture was prepared containing the following components: in a total volume of 0.25 mL: 100 mM Tris-acetate buffer at pH 7.4, 25×10^-6 Goldblatt units of renin, 0.05 mL of plasma from human volunteers taking oral contraceptives, 6.0 mM Na-EDTA, 2.4 mM phenylmethyl sulfonyl fluoride, 1.5 mM 8-hydroxyquinoline, 0.4 mg/mL bovine serum albumin (BSA), and 0.024 mg/mL neomycin sulfate. This mixture was incubated for two hours at 37° C. in the presence or absence of renin inhibitors. The produced angiotensin I was determined by radioimmunoassay (New England Nuclear kit). Test compounds to be assayed were dissolved in DMSO and diluted with 100 mM Tris-acetate buffer at pH 7.4 containing 0.5% BSA to the appropriate concentration. The final concentration of organic solvent in the reaction mixture was less than 1%. Control incubations at 37° C. were used to correct for effects of organic solvent on renin activity.

[2] = test system: hog renin; settings: after injection of hog renin into nephrectomized rats; Gross et al, Science 1971; cited from earlier work
[3] = test system: pepsin; settings: Umezawa et al, J. Antibiot. 1970; cited from earlier work
[4] = test system: cathepsin D; settings: Umezawa et al, J. Antibiot. 1970; cited from earlier work
[5] = test system: renin; settings: Umezawa et al, J. Antibiot. 1970; cited from earlier work

IC50 [1]: 10 nM
Structure (SMILES): CC(C)C[C@H](O)[C@H](O)[C@H](CC1CCCCC1)NC(=O)C(C)CNC(=O)C(Cc1ccccc1)CS(=O)(=O)C(C)(C)C (stereo partly drawn) [Example 1, N-[3-[[1S,1R*-(cyclohexylmethyl)-2S*,3R*-5-methylhexyl]amino]-2S*-methyl-3-oxopropyl]-α-[[(1,1-dimethylethyl)sulfonyl]methyl]benzenepropanamide]

Structure (SMILES): CC(C)CC(=O)N[C@H](C(=O)N[C@H](C(=O)N[C@@H](CC(C)C)[C@@H](O)CC(=O)N[C@@H](C)C(=O)N[C@@H](CC(C)C)[C@@H](O)CC(=O)O)C(C)C)C(C)C [pepstatin] (Isovaleryl-VV[Sta]A[Sta]-OH)
blood pressure in vivo [2]: reduce blood pressure | inhibitor of pepsin [3]: inhibitor | inhibitor of cathepsin D [4]: inhibitor | inhibitor of renin [5]: inhibitor

inhibition at 0.01 µM ([1]; @ 10 nM): 30%
Structure (SMILES): CC(C)C[C@H](O)[C@H](O)[C@H](CC1CCCCC1)NC(=O)C(C)CNC(=O)C(CSC(C)(C)C)Cc1ccccc1 (stereo partly drawn) [Example 2, N-[3-[[1S,1R*-(cyclohexylmethyl)-2S*,3R*-dihydroxy-5-methylhexyl]amino]-2S*-methyl-2-3-oxopropyl]-α-[[(1,1-dimethylethyl)thio]methyl]benzenepropanamide]
